According to article PMC4129108, “The natural triterpene 3β,6β,16β-trihydroxy-lup-20(29)-ene obtained from the flowers of Combretum leprosum induces apoptosis in MCF-7 breast cancer cells” (BMC Complementary and Alternative Medicine, 2014):
≈ marks a conversion by molar mass, not a printed value.

Columns and labels:
[1] = tested on: S. cerevisiae EG110 (sod2Δ); experiment: Yeast survival assay, EG110 (sod2Δ); format: cell-based, Saccharomyces cerevisiae; conditions: for survival (percentage in relation to negative control): STAT cells, 1 h in PBS 30°C
Protocol: Media, solutions and buffers were prepared according to Burke et al.. YPD medium (0.5% yeast extract, 2% peptone, 2% glucose) was used for routine growth. Synthetic medium SC (0.67% yeast nitrogen base, 0.1% ammonium sulfate, 2% glucose) supplemented with the appropriate amino acids and bases ([…]) was used for the detection of mutations.
Stationary phase (STAT) cultures were obtained by inoculation of a single colony into liquid YPD. We chose to work in the stationary phase of growth because this resembles most cells of multicellular organisms in important aspects: (i) most energy comes from mitochondrial respiration; (ii) the cells have left the active cell cycle and have entered the Go phase; and (iii) damage accumulates over time.
STAT cells (1 × 10^8 cells/mL) were exposed to TTHL (10–500 μg/mL) and incubated under growth conditions for 1 h in PBS at 30°C. Cells were then washed and treated with H2O2 (5 mM) in PBS for another hour. Suitable aliquots were plated in triplicate on solid YPD (2–3 days, 30°C) and colony-forming units were counted. Sensitivity was expressed as a percentage of survival in relation to the negative control (solvent).

[2] = tested on: cleaved caspase-9 in MCF-7 cells; experiment: Quantification of cleaved caspase-9 by flow cytometric analysis; format: cell-based, human; conditions: MCF-7, 24 h
Protocol: Cells (2 × 10^5 cells/mL) were seeded on 6-well tissue culture plates, and grown for 1 day up to 70–80% confluence before treatment with the test substance. The TTHL was added to medium with FBS to obtain the different concentrations, and cells were treated at 37°C for 24 h in humidified atmosphere containing 5% CO2.
After treatment, cells (1 × 10^6) were harvested, resuspended in 25 μL PBS and fixed with 4% formaldehyde. After permeabilization and blocking (0.2% Triton X-100 in PBS and 1% BSA), cells were incubated with anti-caspase-9 antibody (diluted 1:1000) for 1 h at room temperature, followed by incubation with anti-rabbit FITC secondary antibody (Uniscience) (diluted 1:1000) for 1 h at room temperature in the dark. A total of 10,000 events were analyzed per sample by FACS Calibur flow cytometer. Fluorescence intensity in arbitrary units was plotted in histograms; the mean fluorescence intensity was calculated using CellQuest software.

[3] = tested on: HT29 cell (colorectal adenocarcinoma); experiment: XTT cell viability assay, HT29; format: cell-based, human; conditions: for IC50: Homo sapiens, HT-29, XTT
Protocol: (§1) The human cell lines MCF-7 (breast adenocarcinoma), HepG2 (hepatoma), T24 (bladder cancer), CACO-2 (colorectal adenocarcinoma) and MRC5 (lung normal fibroblast) were obtained from the Rio de Janeiro Cell Bank (Rio de Janeiro, RJ, Brazil). The HCT116 cell (colorectal carcinoma), and HT29 cell (colorectal adenocarcinoma) were kindly provided by Dr. Annette K. Larsen (Institut National de la Santé et de la Recherche Médicale - INSERM, Paris, França). All cell lines except MCF-7 were grown in DMEM supplemented with 10% or 20% (for CACO-2) FBS, 100 units.mL^-1 penicillin and 100 μg.mL^-1 streptomycin at 37°C in a humidified atmosphere of 5% CO2. MCF-7 cells were maintained in RPMI-1640 supplemented with 20% FBS at the same conditions described above.
(§2) The cytotoxic potential of the TTHL was evaluated by the XTT assay in human tumor cell lines as well as in MRC5 normal fibroblasts. Cells (1 × 10^4 cells) were seeded on 96-well plates in growth medium and incubated overnight. Afterwards, TTHL (0.5, 1.0, 2.5, 5.0, and 10 μg/mL) was added to each well and incubated for 24, 48, 72, and 120 h. Mitoxantrone, a cytostatic anthracenedione that intercalates in DNA and increases the incidence of double-strand breaks by stabilizing the cleavable complex of topoisomerase II and DNA, was used as positive control. At the end of each treatment, cell viability was assessed according to the manufacturer’s instructions. Briefly, after discarding the medium, 1 mL of XTT labeling mixture was added to the cells and incubated for 2 h at 37°C. Absorbance was measured with a SpectraMax reader (Bio-Rad, USA) at a test wavelength of 492 nm (A492) and a reference wavelength of 690 nm (A690). The final result corresponds to A492-A690. The absorbance of negative control cells was set as 100% viability, and the values for treated cells were calculated as a percentage of the control.
(§3) The IC20, IC50, and IC80 values and their 95% confidence intervals (CI 95%) were obtained by nonlinear regression using GraphPad Prism v5 program (Intuitive Software for Science, San Diego, CA, USA). Selective index (SI) was calculated by IC50 in MRC5 cells/IC50 in tumoral cells. All experiments were independently repeated at least three times, with triplicate samples for each treatment. Results are expressed as means ± standard deviation (SD). Data were analyzed by one-way analysis of variance (ANOVA), and means were compared using Tukey test, with P ≤ 0.05 considered as statistically significant.

[4] = tested on: MCF-7 (breast adenocarcinoma); experiment: XTT cell viability assay, MCF-7; format: cell-based, human; conditions: for IC50: XTT
Protocol: as §1, §2, §3

C=C(C)[C@@H]1CC[C@@]2(C)[C@H]1[C@H]1CC[C@@H]3[C@@]4(C)CC[C@H](O)C(C)(C)[C@@H]4[C@H](O)C[C@@]3(C)[C@]1(C)C[C@@H]2O [TTHL, 3β,6β,16β-trihydroxy-lup-20(29)-ene] was tested. Which “survival (percentage in relation to negative control)” value ([1]; TTHL 10 μg/mL) did it give?
Its value is 83.20 ± 3.68 %.

And the “survival (percentage in relation to negative control)” value ([1]; TTHL 50 μg/mL)?
Its value is 72.90 ± 7.07 %.

What about the “survival (percentage in relation to negative control)” value ([1]; TTHL 100 μg/mL) of the same molecule?
Its value is 62.25 ± 3.32 %.

What about the “survival (percentage in relation to negative control)” value ([1]; TTHL 500 μg/mL) of the same molecule?
Its value is 56.65 ± 1.06 %.

What about the “sensitivity of the strain to TTHL (in words)” value ([1]; deficient in superoxide dismutase) of the same molecule?
Its value is “hypersensitive”.

What about the “levels of cleaved caspase-9” value ([2]; TTHL at IC20) of the same molecule?
The value was “no significant changes”.

And the “induction of cleaved caspase-9-labeled cells” value ([2]; TTHL at IC50)?
The value was “increased induction of cleaved caspase-9-labeled cells”.

And the “induction of cleaved caspase-9-labeled cells” value ([2]; TTHL at IC80)?
The value was “increased induction of cleaved caspase-9-labeled cells”.

What about the IC50 ([3]; HT29, 24 h treatment) of the same molecule?
The IC50 was 8 ± 0.14 µg/mL (≈ 17.4 µM).

And the IC50 ([3]; HT29, 48 h treatment)?
Its IC50 is 7 ± 0.42 µg/mL (≈ 15.3 µM).

What about the IC50 ([3]; HT29, 72 h treatment) of the same molecule?
Its IC50 is 6.15 ± 0.21 µg/mL (≈ 13.4 µM).

What about the IC50 ([3]; HT29, 120 h treatment) of the same molecule?
Its IC50 is 5.3 ± 0.28 µg/mL (≈ 11.6 µM).

What about the “Selectivity index (SI)” value ([3]; IC50 in MRC5 cells/IC50 in HT29, 24 h) of the same molecule?
Its value is 1 X.

And the “Selectivity index (SI)” value ([3]; IC50 in MRC5 cells/IC50 in HT29, 48 h)?
Its value is 1 X.

And the “Selectivity index (SI)” value ([3]; IC50 in MRC5 cells/IC50 in HT29, 72 h)?
Its value is 1 X.

What about the “Selectivity index (SI)” value ([3]; IC50 in MRC5 cells/IC50 in HT29, 120 h) of the same molecule?
The value was 1 X.

What about the IC20 ([4]; Homo sapiens, MCF7, MCF-7, 24 h, determined by XTT assay, read-out: IC20 (20% inhibitory concentration)) of the same molecule?
The IC20 was 0.5 µg/mL (≈ 1.09 µM).

What about the IC80 ([4]; Homo sapiens, MCF7, MCF-7, 24 h, determined by XTT assay, read-out: IC80 (80% inhibitory concentration)) of the same molecule?
The IC80 was 3.7 µg/mL (≈ 8.07 µM).

And the IC50 ([4]; Homo sapiens, MCF7, MCF-7, 24 h treatment)?
The IC50 was 1.36 ± 0.05 µg/mL (≈ 2.96 µM).

What about the IC50 ([4]; Homo sapiens, MCF7, MCF-7, 48 h treatment) of the same molecule?
The IC50 was 0.73 ± 0.05 µg/mL (≈ 1.59 µM).

And the IC50 ([4]; Homo sapiens, MCF7, MCF-7, 72 h treatment)?
Its IC50 is 0.63 ± 0.04 µg/mL (≈ 1.37 µM).

What about the IC50 ([4]; Homo sapiens, MCF7, MCF-7, 120 h treatment) of the same molecule?
The IC50 was 0.3 ± 0.04 µg/mL (≈ 0.654 µM).

And the “Selectivity index (SI)” value ([4]; IC50 in MRC5 cells/IC50 in MCF-7, 48 h)?
Its value is 10 X.

And the “Selectivity index (SI)” value ([4]; IC50 in MRC5 cells/IC50 in MCF-7, 72 h)?
Its value is 12 X.

What about the “Selectivity index (SI)” value ([4]; IC50 in MRC5 cells/IC50 in MCF-7, 120 h) of the same molecule?
Its value is 23 X.
